Laboratory results from patent US20030108462A1, “Method of extracting contaminants from solid matter” (priority 2001, published 2003).
Where “and” joins values, the source holds several entries; their conditions need not be identical. Identical values can stand only once.

Legend:
[1] = Chelating-agent leaching of comminuted CCA treated wood, arsenic; details: weight basis, before being adjusted for moisture content
Procedure: (§1) 32 grams of the comminuted treated wood was used to represent 1 mole of the contaminants, and was reacted with 1000 ml of 0.1 mole ethylenediamine-N,N,N′,N′-tetraacetic acid at a temperature of 70° C. for a period of 6 hours. The sample was agitated and allowed to settle periodically to thoroughly mix the wood and the solution, as well as to facilitate leaching. After the last settling period, the mixture stratified into a green colored supernatant which contained the chelated CCA components in soluble form at the top, and clean looking sawdust at the bottom of the reaction container.
(§2) Upon completion of reaction, the supernatant was decanted and retained. The solid section was allowed to drain freely for 15 minutes, after which 500 ml of fresh water was added and the mixture was periodically mixed and allowed to settle for a period of 30 minutes. Similarly, the mixture stratified into a light green solution and cleaner looking saw dust. The liquid was decanted and added to the previously decanted liquid. The settled solids were wrapped in a 250μ filter paper and subjected to a weight of 6 pounds per square inch and allowed to drain. Upon completion, the drained liquid was added to the previously decanted liquids and sent for laboratory analysis. The retained solids were oven dried and analyzed for the target contaminants.
(§3) 100 grams of the comminuted treated wood was used to represent 1 mole of the contaminants and reacted with 1000 mL of 0.1 mole EDTA disodium solution at 30° C. for 30 hours. […]
(§4) Upon completion of reaction, the supernatant was decanted and retained. […] The retained solids were oven dried and analyzed for the target contaminants. […]
(§5) Upon completion of reaction, the supernatant was decanted and retained The solid section was allowed to drain freely for 15 minutes, after which 500 ml of fresh water with a known quality was added and the mixture was periodically mixed and allowed to settle for a period of 30 minutes. […] The retained solids were oven dried and analyzed for the target contaminants.

[2] = Chelating-agent leaching of comminuted CCA treated wood, chromium; details: weight basis, before being adjusted for moisture content
Procedure: as §1, §2, §3, §4, §5

[3] = Chelating-agent leaching of comminuted CCA treated wood, copper; details: weight basis, before being adjusted for moisture content
Procedure: as §1, §2, §3, §4, §5

[4] = at 25° C.; cited from earlier work

| SMILES | Percent Removal, Arsenic [1] | Percent Removal, Chromium [2] | Percent Removal, Copper [3] | Solubility [4] |
| --- | --- | --- | --- | --- |
| O=C(O)CN(CCN(CC(=O)O)CC(=O)O)CC(=O)O [EXAMPLE 1, ethylenediamine-N,N,N′,N′-tetraacetic acid] | 93.28% | 84.47% | 95.54% |  |
| O=C(O)CN(CCN(CC(=O)O)CC(=O)O)CCN(CC(=O)O)CC(=O)O [Diethylenetriamine-N,N,N′,N″,N′-pentaacetic Acid] |  |  |  | 0.46 g/l00 mL at 25 °C |
| O=C(O)CN(CCN(CC(=O)O)CC(=O)O)CC(=O)O [EXAMPLE 3, EDTA Free Acid] | 96.09% | 90.09% and 90.89% | 99.75% |  |
| O=C([O-])CN(CCN(CC(=O)[O-])CC(=O)O)CC(=O)O.[Na+].[Na+] [EXAMPLE 2, EDTA disodium] | 96.36% | 90.86% | 98.35% |  |
